Measurements: patent EP0033042A1, “Ophthalmic inserts for lowering intraocular pressure comprising carbonic anhydrase inhibitors” (Merck & Co., Inc., priority 1980, dated 1981)
Where a name gives a salt, the structure may show the parent alone.

What was measured:
[1] = system: NORMAL INTRAOCULAR PRESSURE IN UNANESTHETIZED RABBITS; experiment: Topical administration, effect on normal intraocular pressure in unanesthetized rabbits; assay type: in vivo; details: 12.1 % by wt., 50μl in both eyes, in 0.5% hydroxyethylcellulose
[2] = system: INTRAOCULAR PRESSURE (IOP) IN RABBITS WITH ALPHA CHYMOTRYPSIN-INDUCED OCULAR HYPERTENSION; experiment: Topical administration, effect on IOP in rabbits with alpha chymotrypsin-induced ocular hypertension (tonometry); assay type: in vivo; details: for Change in IOP (mm Hg) After Drug Administration: 12.1 % by wt., 50µl of 0.5% hydroxyethylcellulose; for Change in IOP (mm Hg) After Drug Administration / IOP (mm Hg) t=0 min.: mean ± standard deviation, Table III; for IOP (mm Hg) t=0 min.: immediately prior the drug administration (served as control), 9 eyes; for mean ΔP (mean of ΔP versus IOP at t0): 8 animals; for mean ΔP (mean of ΔP versus IOP at t0) / Intraocular pressure, mean ± stand deviation: 50μl in 0.5% hydroxyethyl cellulose; for Intraocular pressure, mean ± stand deviation: mean of 8 animals
[3] = 0 min after instillation (baseline), 14 eyes

Row | Structure (SMILES) | Mean Intraocular Pressure ± SD [1, 3] | Mean Intraocular Pressure ± SD ([1]; 30 min after instillation) | Mean Intraocular Pressure ± SD ([1]; 60 min after instillation) | Mean Intraocular Pressure ± SD ([1]; 120 min after instillation) | Mean Intraocular Pressure ± SD ([1]; 180 min after instillation) | Mean Intraocular Pressure ± SD ([1]; 240 min after instillation) | Mean Intraocular Pressure ± SD ([1]; 300 min after instillation) | Change in IOP (mm Hg) After Drug Administration ([2]; 30 min) | Change in IOP (mm Hg) After Drug Administration ([2]; 60 min) | Change in IOP (mm Hg) After Drug Administration ([2]; 120 min) | Change in IOP (mm Hg) After Drug Administration ([2]; 180 min) | Change in IOP (mm Hg) After Drug Administration ([2]; 240 min) | Change in IOP (mm Hg) After Drug Administration ([2]; 300 min) | IOP (mm Hg) t=0 min. [2] | further results
1 | NS(=O)(=O)c1cc(Cl)c(Cl)c(S(N)(=O)=O)c1 [Dichlorphenamide Dipotassium salt, 4,5-Dichloro-m-benzenedisulfon-amide dipotassium salt . hemihydrate] | 20±1.8 mm Hg | 18±2.4 mm Hg | 18±2.4 mm Hg | 17±2.1 mm Hg | 15±2.4 mm Hg | 17±1.8 mm Hg | 20±2.6 mm Hg | -1±5.3 mm Hg | -4±3.8 mm Hg | -7±6.2 mm Hg | -6±6.8 mm Hg | -4±6.2 mm Hg | -3±6.7 mm Hg | 38±5.9 mm Hg | –
2 | CC(=O)N=c1sc(S(N)(=O)=O)nn1C.[Na] [Methazolamide Sodium salt, N-[5-(aminosulfonyl)-3-methyl-1,3,4-thiadiazol-2(3H)-ylidene]acetamide Sodium Salt] | 20±1.9 mm Hg | 20±3.0 mm Hg | 20±2.7 mm Hg | 19±3.3 mm Hg | 18±2.7 mm Hg | 20±3.4 mm Hg | 20±2.8 mm Hg | -3±4.6 mm Hg | -5±4.7 mm Hg | -6±6.0 mm Hg | -7±3.7 mm Hg | -5±5.4 mm Hg | -7±6.3 mm Hg | 39±7.7 mm Hg | mean ΔP (mean of ΔP versus IOP at t0) ([2]; 30 min.): -3.1±4.58 mm Hg; mean ΔP (mean of ΔP versus IOP at t0) ([2]; 60 min.): -5.1±4.68 mm Hg; mean ΔP (mean of ΔP versus IOP at t0) ([2]; 120 min.): -5.6±6.02 mm Hg; mean ΔP (mean of ΔP versus IOP at t0) ([2]; 180 min.): -6.8±3.70 mm Hg; mean ΔP (mean of ΔP versus IOP at t0) ([2]; 240 min.): -5.4±5.42 mm Hg; mean ΔP (mean of ΔP versus IOP at t0) ([2]; 300 min.): -6.9±6.27 mm Hg; Intraocular pressure, mean ± stand deviation ([2]; 0 min. (baseline)): 39.1±7.72 mm Hg; Intraocular pressure, mean ± stand deviation ([2]; 30 min.): 36.0±8.09 mm Hg; Intraocular pressure, mean ± stand deviation ([2]; 60 min.): 34.0±7.37 mm Hg; Intraocular pressure, mean ± stand deviation ([2]; 120 min.): 33.5±8.91 mm Hg; Intraocular pressure, mean ± stand deviation ([2]; 180 min.): 32.4±6.05 mm Hg; Intraocular pressure, mean ± stand deviation ([2]; 240 min.): 33.8±7.91 mm Hg; Intraocular pressure, mean ± stand deviation ([2]; 300 min.): 32.3±7.67 mm Hg
3 | CC(=O)Nc1nnc(S(N)(=O)=O)s1.[K].[K] [Acetazolamide Dipotassium salt, N-[5-(aminosulfonyl)-1,3,4-thiadiazol-2-yl]acetamide dipotassium salt] | 19±1.3 mm Hg | 19±1.3 mm Hg | 20±1.4 mm Hg | 19±1.9 mm Hg | 19±1.9 mm Hg | 20±1.8 mm Hg | 21±1.7 mm Hg | -1±3.1 mm Hg | -3±4.8 mm Hg | -5±4.6 mm Hg | -6±5.3 mm Hg | -6±5.3 mm Hg | -3±6.5 mm Hg | 37±6.4 mm Hg | –
